Measured values reported in ChEMBL document CHEMBL1201862, “PubChem BioAssay data set” (2004).
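Exposure lasted 48 hours, with cells grown in 96-well plates and compounds tested at five concentrations. GI50 is the concentration that inhibits growth by half.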 The source made the active and inactive calls. No stated cut-off is given here; in the data, active = GI50 up to about 1.1 µM and inactive = higher. *1 amine or outer side, *2 acyl side, *3 side chain or, on linkers, in order; H or OH if unused. Where a SMILES comes first, the peptide text is derived from it. Bridges are numbered along the chain shown (N, C = ends). Roman numbers before positions name the chains, in order. [ ]: non-standard residue; d: D form. Actinocin(1to9) = Cc1c2oc3c(C)ccc(C(=O)[*:2])c3nc-2c(C(=O)[*:1])c(N)c1=O; NMeV = CN[CH](C(=O)O)C(C)C; Sar = CNCC(=O)O

Key:
Assay in all cases: DTP human tumour cell line panel, 48 h
[1] = system: LOX IMVI
[2] = system: M14
[3] = system: HL-60
[4] = system: RPMI-8226
[5] = system: OVCAR-4
[6] = system: A498
[7] = system: SW-620
[8] = system: CCRF-CEM
[9] = system: NCI-H226
[10] = system: MDA-MB-435
[11] = system: 786-0
[12] = system: SK-MEL-2
[13] = system: SF-268
[14] = system: SF-539
[15] = system: EKVX
[16] = system: NCI/ADR-RES
[17] = system: HCT-15
[18] = system: UACC-257
[19] = system: IGROV-1
[20] = system: PC-3

| Structure (SMILES) | GI50 [1] | GI50 [2] | GI50 [3] | GI50 [4] | GI50 [5] | GI50 [6] | GI50 [7] | GI50 [8] | GI50 [9] | GI50 [10] | GI50 [11] | GI50 [12] | GI50 [13] | GI50 [14] | GI50 [15] | GI50 [16] | GI50 [17] [µM] | GI50 [18] | GI50 [19] | GI50 [20] |
| --- | --- | --- | --- | --- | --- | --- | --- | --- | --- | --- | --- | --- | --- | --- | --- | --- | --- | --- | --- | --- |
| COC(=O)c1c(O)ccc2c1c1c(n2C)C(=O)c2ccccc2C1=O | 16.7 µM (inactive) | 49.2 µM (inactive) | > 100 µM (inactive) | 4.78 µM (inactive) | 13.6 µM (inactive) | > 100 µM (inactive) | 59.4 µM (inactive) | 6.37 µM (inactive) | 9.02 µM (inactive) | 33 µM (inactive) | 15.3 µM (inactive) | 25.4 µM (inactive) | 13.8 µM (inactive) | 17.6 µM (inactive) | 42 µM (inactive) | 43.7 µM (inactive) | 13.1 | > 100 µM (inactive) | 4 µM (inactive) | 23.3 µM (inactive) |
| N#Cc1c(-c2ccc(Cl)cc2)c2c([nH]c1=O)-c1ccccc1SC2 | 22 µM (inactive) | > 100 µM (inactive) | 21 µM (inactive) | 16.7 µM (inactive) | 38.6 µM (inactive) | > 100 µM (inactive) | > 100 µM (inactive) | 26.3 µM (inactive) | 38.6 µM (inactive) | 41 µM (inactive) | 39.8 µM (inactive) | 52.6 µM (inactive) | 41.9 µM (inactive) | 25.6 µM (inactive) | 21.1 µM (inactive) | 29.2 µM (inactive) | 70.6 | > 100 µM (inactive) | 56.9 µM (inactive) | 42.8 µM (inactive) |
| NC1=Nc2cc(Cl)ccc2Sc2nc3ccccc3n21 | 4.4 µM (inactive) | 2.52 µM (inactive) | 2.39 µM (inactive) | 5.73 µM (inactive) | > 20.8 µM (inactive) | > 100 µM (inactive) | > 86.3 µM (inactive) | 1.22 µM (inactive) | 2.86 µM (inactive) | > 100 µM (inactive) | 14.2 µM (inactive) | 20 µM (inactive) | > 61.5 µM (inactive) | > 100 µM (inactive) | 20.3 µM (inactive) | > 100 µM (inactive) | > 100 | 5.83 µM (inactive) | 4.7 µM (inactive) | 6.76 µM (inactive) |
| O=c1c2c(nc3[nH]ccn13)CCC2 | > 10 µM (inactive) | > 10 µM (inactive) | > 10 µM (inactive) | > 10 µM (inactive) | > 10 µM (inactive) | 2.13 µM (inactive) | > 10 µM (inactive) | > 10 µM (inactive) | > 10 µM (inactive) | > 10 µM (inactive) | > 10 µM (inactive) | > 10 µM (inactive) | > 10 µM (inactive) | > 10 µM (inactive) | > 10 µM (inactive) | > 10 µM (inactive) | > 10 | > 10 µM (inactive) | > 10 µM (inactive) | > 10 µM (inactive) |
| CC1OC2=N[C@@H]1C(=O)N[C@@H](C(C)C)C1=N[C@H](C(=O)N[C@@H](C(C)C)C3=N[C@H](C(=O)N[C@@H](C(C)C)C4=N[C@H](C(=O)N[C@H]2C(C)C)C(C)O4)C(C)O3)C(C)O1 (stereo not given in full) | > 10 µM (inactive) | > 10 µM (inactive) | > 10 µM (inactive) | > 10 µM (inactive) | > 10 µM (inactive) | > 10 µM (inactive) | > 10 µM (inactive) | > 10 µM (inactive) | > 10 µM (inactive) | > 10 µM (inactive) | > 10 µM (inactive) | > 10 µM (inactive) | > 10 µM (inactive) | > 10 µM (inactive) | > 10 µM (inactive) | > 10 µM (inactive) | > 10 | > 10 µM (inactive) | > 10 µM (inactive) | > 10 µM (inactive) |
| CCC(C)C1NC(=O)C(NC(=O)c2c3nc4c(C(=O)NC5C(=O)NC(C(C)C)C(=O)N6CCCC6C(=O)N(C)CC(=O)N(C)C(C(C)C)C(=O)OC5C)ccc(C)c4oc-3c(C)c(=O)c2N)C(C)OC(=O)C(C(C)C)N(C)C(=O)CN(C)C(=O)C2CCCN2C1=O (stereo not given) (I: TIP[Sar][NMeV] / II: TVP[Sar][NMeV]; ester I:1-I:C, II:1-II:C; linker I:N-II:N via Actinocin(1to9); configuration not given here) | < 0.0001 µM (active) | 0.00269 µM (active) | 0.000513 µM (active) | < 0.0001 µM (active) | 0.0102 µM (active) | 0.000197 µM (active) | < 0.0001 µM (active) | 0.000421 µM (active) | 0.0101 µM (active) | 0.000513 µM (active) | 0.00042 µM (active) | 0.00172 µM (active) | 0.000916 µM (active) | 0.00165 µM (active) | 0.00377 µM (active) | 0.156 µM (active) | 0.0807 | 0.00119 µM (active) | 0.00393 µM (active) | 0.000346 µM (active) |
| O=[N+]([O-])c1nccn1CC(O)CN1CCCCC1 (stereo not given) [PIMONIDAZOLE] | > 100 µM (inactive) | > 100 µM (inactive) | > 100 µM (inactive) | > 100 µM (inactive) | > 100 µM (inactive) | > 100 µM (inactive) | > 100 µM (inactive) | > 100 µM (inactive) | > 100 µM (inactive) | > 100 µM (inactive) | > 100 µM (inactive) | > 100 µM (inactive) | > 100 µM (inactive) | > 100 µM (inactive) | > 100 µM (inactive) | > 100 µM (inactive) | > 100 | > 100 µM (inactive) | > 100 µM (inactive) | > 100 µM (inactive) |
